Measurements reported in patent US11759462B2, “Spirocyclic compounds as tryptophan hydroxylase inhibitors” (priority 2013, dated 2023).
pIC50: −log10 of the molar value.

Molecular target: T1, Recombinant human TPH1 (MBP tagged) (Homo sapiens, UniProt P17752)
T1 construct: cloning full length human TPH1 cDNA in to a bacterial pMAL-c5E expression vector; made in house; host or cells: E. coli BL21 (DE3)
T1 sequence (P17752 1-444): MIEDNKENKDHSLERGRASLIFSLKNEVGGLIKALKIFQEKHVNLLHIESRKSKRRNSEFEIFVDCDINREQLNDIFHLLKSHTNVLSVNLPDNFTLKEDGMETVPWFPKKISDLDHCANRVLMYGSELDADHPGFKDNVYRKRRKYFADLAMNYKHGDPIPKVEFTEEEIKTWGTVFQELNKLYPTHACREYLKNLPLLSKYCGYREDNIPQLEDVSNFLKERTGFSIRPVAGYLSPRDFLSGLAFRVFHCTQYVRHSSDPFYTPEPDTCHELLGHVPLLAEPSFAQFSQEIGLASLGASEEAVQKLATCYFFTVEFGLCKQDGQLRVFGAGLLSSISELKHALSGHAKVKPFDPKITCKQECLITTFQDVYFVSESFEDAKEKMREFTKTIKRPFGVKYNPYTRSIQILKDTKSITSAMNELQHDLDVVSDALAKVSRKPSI
Experiment: TPH1 in vitro inhibition assay (kinetic fluorescence)
Format: biochemical
Conditions: read-out: TPH1 Range (TPH1 inhibition IC50)
Summary of the method: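 Final mix: 15 nM MBP-TPH1, 30 μM Trp, 36 μM 6-methyltetrahydropterin, 25 μM ferrous ammonium sulfate, 50 mM MES pH 7.1, 1% DMSO, room temperature.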

In the case of `CCCOC(=O)c1ccc([C@@H](Oc2cc(N3CCC4(CC3)CN[C@H](C(=O)O)C4)nc(N)n2)C(F)(F)F)c(-n2ccc(C)n2)c1` [Example 18b, (S)-8-(2-amino-6-((R)-2,2,2-trifluoro-1-(2-(3-methyl-1H-pyrazol-1-yl)-4-(propoxycarbonyl)phenyl)ethoxy)pyrimidin-4-yl)-2,8-diazaspiro[4.5]decane-3-carboxylic acid], the pIC50 was greater than 7.30.

`CCCCOC(=O)c1ccc([C@@H](Oc2cc(N3CCC4(CC3)CN[C@H](C(=O)O)C4)nc(N)n2)C(F)(F)F)c(-n2ccc(C)n2)c1` [Example 18c, (S)-8-(2-amino-6-((R)-1-(4-(butoxycarbonyl)-2-(3-methyl-1H-pyrazol-1-yl)phenyl)-2,2,2-trifluoroethoxy)pyrimidin-4-yl)-2,8-diazaspiro[4.5]decane-3-carboxylic acid] was tested, and the pIC50 was greater than 7.30.

`Cc1ccn(-c2cc(C(=O)OC(C)(C)C)ccc2[C@@H](Oc2cc(N3CCC4(CC3)CN[C@H](C(=O)O)C4)nc(N)n2)C(F)(F)F)n1` [Example 18d, (S)-8-(2-amino-6-((R)-1-(4-(tert-butoxycarbonyl)-2-(3-methyl-1H-pyrazol-1-yl)phenyl)-2,2,2-trifluoroethoxy)pyrimidin-4-yl)-2,8-diazaspiro[4.5]decane-3-carboxylic acid] gave a pIC50 greater than 7.30.

`Cc1ccn(-c2cc(C(=O)OCC(C)C)ccc2[C@@H](Oc2cc(N3CCC4(CC3)CN[C@H](C(=O)O)C4)nc(N)n2)C(F)(F)F)n1` [Example 18e, (S)-8-(2-amino-6-((R)-2,2,2-trifluoro-1-(4-(isobutoxycarbonyl)-2-(3-methyl-1H-pyrazol-1-yl)phenyl)ethoxy)pyrimidin-4-yl)-2,8-diazaspiro[4.5]decane-3-carboxylic acid] gave a pIC50 greater than 7.30.

`Cc1ccn(-c2cc(C(=O)OC3CCCC3)ccc2[C@@H](Oc2cc(N3CCC4(CC3)CN[C@H](C(=O)O)C4)nc(N)n2)C(F)(F)F)n1` [Example 18f, (S)-8-(2-amino-6-((R)-1-(4-((cyclopentyloxy)carbonyl)-2-(3-methyl-1H-pyrazol-1-yl)phenyl)-2,2,2-trifluoroethoxy)pyrimidin-4-yl)-2,8-diazaspiro[4.5]decane-3-carboxylic acid] gave a pIC50 greater than 7.30.

`C=Cc1ccc(-n2ccc(C)n2)c([C@@H](Oc2cc(N3CCC4(CC3)CN[C@H](C(=O)O)C4)nc(N)n2)C(F)(F)F)c1` [Example 19a, (S)-8-(2-amino-6-((R)-2,2,2-trifluoro-1-(2-(3-methyl-1H-pyrazol-1-yl)-5-vinylphenyl)ethoxy)pyrimidin-4-yl)-2,8-diazaspiro[4.5]decane-3-carboxylic acid] was tested, and the pIC50 was greater than 7.30.

Work on `C/C=C/c1ccc(-n2ccc(C)n2)c([C@@H](Oc2cc(N3CCC4(CC3)CN[C@H](C(=O)O)C4)nc(N)n2)C(F)(F)F)c1` [Example 19b, (S)-8-(2-amino-6-((R)-2,2,2-trifluoro-1-(2-(3-methyl-1H-pyrazol-1-yl)-5-((E)-prop-1-en-1-yl)phenyl)ethoxy)pyrimidin-4-yl)-2,8-diazaspiro[4.5]decane-3-carboxylic acid] yielded a pIC50 greater than 7.30.

`CC/C=C/c1ccc(-n2ccc(C)n2)c([C@@H](Oc2cc(N3CCC4(CC3)CN[C@H](C(=O)O)C4)nc(N)n2)C(F)(F)F)c1` [Example 19c, (S)-8-(2-amino-6-((R)-1-(5-((E)-but-1-en-1-yl)-2-(3-methyl-1H-pyrazol-1-yl)phenyl)-2,2,2-trifluoroethoxy)pyrimidin-4-yl)-2,8-diazaspiro[4.5]decane-3-carboxylic acid] was tested, and the pIC50 was greater than 7.30.

In the case of `Cc1ccn(-c2ccc(/C=C/C(=O)O)cc2[C@@H](Oc2cc(N3CCC4(CC3)CN[C@H](C(=O)O)C4)nc(N)n2)C(F)(F)F)n1` [Example 19d, (S)-8-(2-amino-6-((R)-1-(5-((E)-2-carboxyvinyl)-2-(3-methyl-1H-pyrazol-1-yl)phenyl)-2,2,2-trifluoroethoxy)pyrimidin-4-yl)-2,8-diazaspiro[4.5]decane-3-carboxylic acid], the pIC50 was 6.52 to 7.30.

`Cc1ccn(-c2ccc(-c3ccc(C)c(C)c3)cc2[C@@H](Oc2cc(N3CCC4(CC3)CN[C@H](C(=O)O)C4)nc(N)n2)C(F)(F)F)n1` [Example 19e, (S)-8-(2-amino-6-((R)-1-(3′,4′-dimethyl-4-(3-methyl-1H-pyrazol-1-yl)-[1,1′-biphenyl]-3-yl)-2,2,2-trifluoroethoxy)pyrimidin-4-yl)-2,8-diazaspiro[4.5] decane-3-carboxylic acid] gave a pIC50 greater than 7.30.

Work on `Cc1ccn(-c2ccc(-c3cccc(C(=O)O)c3)cc2[C@@H](Oc2cc(N3CCC4(CC3)CN[C@H](C(=O)O)C4)nc(N)n2)C(F)(F)F)n1` [Example 19f, (S)-8-(2-amino-6-((R)-1-(3′-carboxy-4-(3-methyl-1H-pyrazol-1-yl)-[1,1′-biphenyl]-3-yl)-2,2,2-trifluoroethoxy)pyrimidin-4-yl)-2,8-diazaspiro[4.5] decane-3-carboxylic acid] yielded a pIC50 greater than 7.30.

`Cc1ccn(-c2ccc(-c3ccc(C(=O)O)cc3)cc2[C@@H](Oc2cc(N3CCC4(CC3)CN[C@H](C(=O)O)C4)nc(N)n2)C(F)(F)F)n1` [Example 19g, (S)-8-(2-amino-6-((R)-1-(4′-carboxy-4-(3-methyl-1H-pyrazol-1-yl)-[1,1′-biphenyl]-3-yl)-2,2,2-trifluoroethoxy)pyrimidin-4-yl)-2,8-diazaspiro[4.5] decane-3-carboxylic acid] showed a pIC50 greater than 7.30.

With `Cc1ccn(-c2ccc(-c3cccc(/C=C/C(=O)O)c3)cc2[C@@H](Oc2cc(N3CCC4(CC3)CN[C@H](C(=O)O)C4)nc(N)n2)C(F)(F)F)n1` [Example 19h, (S)-8-(2-amino-6-((R)-1-(3′-((E)-2-carboxyvinyl)-4-(3-methyl-1H-pyrazol-1-yl)-[1,1′-biphenyl]-3-yl)-2,2,2-trifluoroethoxy)pyrimidin-4-yl)-2,8-diazaspiro[4.5] decane-3-carboxylic acid] the pIC50 was greater than 7.30.

Work on `Cc1ccn(-c2ccc(-c3ccc(/C=C/C(=O)O)cc3)cc2[C@@H](Oc2cc(N3CCC4(CC3)CN[C@H](C(=O)O)C4)nc(N)n2)C(F)(F)F)n1` [Example 19i, (S)-8-(2-amino-6-((R)-1-(4′-((E)-2-carboxyvinyl)-4-(3-methyl-1H-pyrazol-1-yl)-[1,1′-biphenyl]-3-yl)-2,2,2-trifluoroethoxy)pyrimidin-4-yl)-2,8-diazaspiro[4.5] decane-3-carboxylic acid] yielded a pIC50 greater than 7.30.

Work on `Cc1ccn(-c2ccc(-c3cccc(CCC(=O)O)c3)cc2[C@@H](Oc2cc(N3CCC4(CC3)CN[C@H](C(=O)O)C4)nc(N)n2)C(F)(F)F)n1` [Example 19j, (S)-8-(2-amino-6-((R)-1-(3′-(2-carboxyethyl)-4-(3-methyl-1H-pyrazol-1-yl)-[1,1′-biphenyl]-3-yl)-2,2,2-trifluoroethoxy)pyrimidin-4-yl)-2,8-diazaspiro[4.5] decane-3-carboxylic acid] yielded a pIC50 greater than 7.30.

`Cc1ccn(-c2ccc(-c3ccc(CCC(=O)O)cc3)cc2[C@@H](Oc2cc(N3CCC4(CC3)CN[C@H](C(=O)O)C4)nc(N)n2)C(F)(F)F)n1` [Example 19k, (S)-8-(2-amino-6-((R)-1-(4′-(2-carboxyethyl)-4-(3-methyl-1H-pyrazol-1-yl)-[1,1′-biphenyl]-3-yl)-2,2,2-trifluoroethoxy)pyrimidin-4-yl)-2,8-diazaspiro[4.5] decane-3-carboxylic acid] was tested, and the pIC50 was greater than 7.30.

Compound `Cc1ccn(-c2ccc(-c3ccc(CO)c(C)c3)cc2[C@@H](Oc2cc(N3CCC4(CC3)CN[C@H](C(=O)O)C4)nc(N)n2)C(F)(F)F)n1` [Example 19l, (S)-8-(2-amino-6-((R)-2,2,2-trifluoro-1-(4′-(hydroxymethyl)-3′-methyl-4-(3-methyl-1H-pyrazol-1-yl)-[1,1′-biphenyl]-3-yl)ethoxy)pyrimidin-4-yl)-2,8-diazaspiro[4.5]decane-3-carboxylic acid] has a pIC50 greater than 7.30.

For `Cc1ccn(-c2ccc(-c3ccc(C)c(CO)c3)cc2[C@@H](Oc2cc(N3CCC4(CC3)CN[C@H](C(=O)O)C4)nc(N)n2)C(F)(F)F)n1` [Example 19m, (S)-8-(2-amino-6-((R)-2,2,2-trifluoro-1-(3′-(hydroxymethyl)-4′-methyl-4-(3-methyl-1H-pyrazol-1-yl)-[1,1′-biphenyl]-3-yl)ethoxy)pyrimidin-4-yl)-2,8-diazaspiro[4.5]decane-3-carboxylic acid], the pIC50 was greater than 7.30.

`Cc1ccn(-c2ccc(-c3ccccc3)cc2[C@@H](Oc2cc(N3CCC4(CC3)CN[C@H](C(=O)O)C4)nc(N)n2)C(F)(F)F)n1` [Example 19n, (S)-8-(2-amino-6-((R)-2,2,2-trifluoro-1-(4-(3-methyl-1H-pyrazol-1-yl)-[1,1′-biphenyl]-3-yl)ethoxy)pyrimidin-4-yl)-2,8-diazaspiro[4.5]decane-3-carboxylic acid] showed a pIC50 greater than 7.30.

Work on `Cc1ccn(-c2ccc(-c3ccc(F)c(F)c3)cc2[C@@H](Oc2cc(N3CCC4(CC3)CN[C@H](C(=O)O)C4)nc(N)n2)C(F)(F)F)n1` [Example 19o, (S)-8-(2-amino-6-((R)-1-(3′,4′-difluoro-4-(3-methyl-1H-pyrazol-1-yl)-[1,1′-biphenyl]-3-yl)-2,2,2-trifluoroethoxy)pyrimidin-4-yl)-2,8-diazaspiro[4.5] decane-3-carboxylic acid] yielded a pIC50 greater than 7.30.

`Cc1ccn(-c2ccc(-c3ccc(Cl)c(Cl)c3)cc2[C@@H](Oc2cc(N3CCC4(CC3)CN[C@H](C(=O)O)C4)nc(N)n2)C(F)(F)F)n1` [Example 19p, (S)-8-(2-amino-6-((R)-1-(3′,4′-dichloro-4-(3-methyl-1H-pyrazol-1-yl)-[1,1′-biphenyl]-3-yl)-2,2,2-trifluoroethoxy)pyrimidin-4-yl)-2,8-diazaspiro[4.5] decane-3-carboxylic acid] showed a pIC50 greater than 7.30.
